# System: 13 viruses and variants
# Experiment: organism not typed
# Assay type: cell-based
compound,measurement,value
Cc1c(-c2ccc(O)cc2)n(Cc2ccc(OCCN3CCCCC3)cc2)c2ccc(O)cc12 [Pipendoxifene],potency,submicromolar potency

# From patent US20260124192A1, “COMPOUNDS, COMPOSITIONS, AND METHODS OF TREATING RNA VIRAL INFECTIONS” (priority 2024, published 2026)
